{
  "source": "the supplement of paper PMC10307832",
  "assay_in_all_cases": "relative viability (nuclei count vs DMSO), 5 days (fraction); higher = more cells survive",
  "key": {"RU-SKI 43 + Trametinib": {"compound": "CC[C@@H](C)CNCC(=O)N1CCC2=C([C@@H]1COC3=CC=CC(=C3)C)C=CS2 [RU-SKI 43] + CC(=O)Nc1cccc(-n2c(=O)n(C3CC3)c(=O)c3c(Nc4ccc(I)cc4F)n(C)c(=O)c(C)c32)c1 [Trametinib] (partner 0.02 µM)", "in_short": "(§1)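 Relative viability divides the nuclei count in treated wells by that in vehicle wells. Lung cancer cell lines were seeded in 1536-well plates, dosed by pin tool the next day, and fixed and stained after 5 days in one step with final 0.05% Triton X-100, 1% formaldehyde and 1 ug/ml Hoechst. Dosing was a single drug or a fixed anchor-drug dose plus five library-drug doses (not always all listed) in √10 steps, and values are medians of duplicate plates imaged at 4×.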"}, "RU-SKI 43 + Lapatinib": {"compound": "CC[C@@H](C)CNCC(=O)N1CCC2=C([C@@H]1COC3=CC=CC(=C3)C)C=CS2 [RU-SKI 43] + CS(=O)(=O)CCNCc1ccc(-c2ccc3ncnc(Nc4ccc(OCc5cccc(F)c5)c(Cl)c4)c3c2)o1 [Lapatinib] (partner 2 µM)", "in_short": "as §1"}, "RU-SKI 43 + Olaparib": {"compound": "CC[C@@H](C)CNCC(=O)N1CCC2=C([C@@H]1COC3=CC=CC(=C3)C)C=CS2 [RU-SKI 43] + O=C(c1cc(Cc2n[nH]c(=O)c3ccccc23)ccc1F)N1CCN(C(=O)C2CC2)CC1 [Olaparib] (partner 8 µM)", "in_short": "as §1"}, "Irinotecan + Crizotinib": {"compound": "CCc1c2c(nc3ccc(OC(=O)N4CCC(N5CCCCC5)CC4)cc13)-c1cc3c(c(=O)n1C2)COC(=O)[C@]3(O)CC [Irinotecan] + C[C@@H](Oc1cc(-c2cnn(C3CCNCC3)c2)cnc1N)c1c(Cl)ccc(F)c1Cl [Crizotinib] (partner 1 µM)", "in_short": "as §1"}},
  "data": [
    {"cell line": "UMC-11", "values": [
      {"measurement": "relative viability", "setting": "RU-SKI 43 + Trametinib; first compound 0.1 µM", "result": 0.691},
      {"measurement": "relative viability", "setting": "RU-SKI 43 + Trametinib; first compound 0.3162 µM", "result": 0.693},
      {"measurement": "relative viability", "setting": "RU-SKI 43 + Trametinib; first compound 1 µM", "result": 0.742},
      {"measurement": "relative viability", "setting": "RU-SKI 43 + Trametinib; first compound 3.162 µM", "result": 0.745},
      {"measurement": "relative viability", "setting": "RU-SKI 43 + Trametinib; first compound 10 µM", "result": 0.401},
      {"measurement": "relative viability", "setting": "RU-SKI 43 + Lapatinib; first compound 0.1 µM", "result": 1.05},
      {"measurement": "relative viability", "setting": "RU-SKI 43 + Lapatinib; first compound 0.3162 µM", "result": 1.01},
      {"measurement": "relative viability", "setting": "RU-SKI 43 + Lapatinib; first compound 1 µM", "result": 1.48},
      {"measurement": "relative viability", "setting": "RU-SKI 43 + Lapatinib; first compound 3.162 µM", "result": 0.918},
      {"measurement": "relative viability", "setting": "RU-SKI 43 + Lapatinib; first compound 10 µM", "result": 0.764},
      {"measurement": "relative viability", "setting": "RU-SKI 43 + Olaparib; first compound 0.1 µM", "result": 0.397},
      {"measurement": "relative viability", "setting": "RU-SKI 43 + Olaparib; first compound 0.3162 µM", "result": 0.418},
      {"measurement": "relative viability", "setting": "RU-SKI 43 + Olaparib; first compound 1 µM", "result": 0.399},
      {"measurement": "relative viability", "setting": "RU-SKI 43 + Olaparib; first compound 3.162 µM", "result": 0.383},
      {"measurement": "relative viability", "setting": "RU-SKI 43 + Olaparib; first compound 10 µM", "result": 0.273},
      {"measurement": "relative viability", "setting": "Irinotecan + Crizotinib; first compound 0.6325 µM", "result": 0.296},
      {"measurement": "relative viability", "setting": "Irinotecan + Crizotinib; first compound 2 µM", "result": 0.374},
      {"measurement": "relative viability", "setting": "Irinotecan + Crizotinib; first compound 6.325 µM", "result": 0.326},
      {"measurement": "relative viability", "setting": "Irinotecan + Crizotinib; first compound 20 µM", "result": 0.157}
    ]}
  ]
}
